Experimental data: publication PMC5570900, “Exploiting a novel conformational switch to control innate immunity mediated by complement protein C3a” (Nature Communications, 2017)

Molecular target: T1, C3aR (Rattus norvegicus, UniProt O55197)
T1 construct: characterize for the first time a C3aR-induced innate immune response in vivo in rats; from tissue; host or cells: live male Wistar rats, hind paw
T1 sequence (O55197 1-473): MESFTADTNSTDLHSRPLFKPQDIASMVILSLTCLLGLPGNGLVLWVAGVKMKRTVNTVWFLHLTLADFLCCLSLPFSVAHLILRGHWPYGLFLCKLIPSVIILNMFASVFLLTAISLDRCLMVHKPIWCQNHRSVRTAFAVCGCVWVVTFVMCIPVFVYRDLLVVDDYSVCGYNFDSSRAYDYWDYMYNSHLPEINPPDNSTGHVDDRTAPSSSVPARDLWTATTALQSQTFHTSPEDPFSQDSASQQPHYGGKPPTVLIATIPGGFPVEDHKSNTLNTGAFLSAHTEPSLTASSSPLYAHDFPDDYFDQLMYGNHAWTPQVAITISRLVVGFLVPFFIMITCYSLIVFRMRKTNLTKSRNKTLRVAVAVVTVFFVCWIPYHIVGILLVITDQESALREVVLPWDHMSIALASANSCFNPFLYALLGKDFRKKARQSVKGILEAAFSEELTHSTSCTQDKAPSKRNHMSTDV
Experiment: Agonist-induced acute rat paw edema and immune responses
Format: in vivo
Method: Male Wistar rats (8–9 weeks) were injected with BR103 (3, 350 μg in 100 μL isotonic saline) into the plantar surface of both hind paw pads using a 30G needle. The inhibitor cromolyn (20 mg/kg in 5% DMSO) was injected subcutaneously 30 min before the agonist. The antagonist BR111 (6, 5–20 mg/kg in olive oil) was administered orally as a single dose 2 h before the agonist. Paw thickness and width were measured using digital calipers (WPI) at 0, 0.5, 2, 6 and 24 h after agonist BR103 administration. Hind paw size is expressed as % change in area from baseline after 0.5 h and then normalized against maximum swelling induced by agonist alone. Researchers were not blinded to treatments given.
Rat paw tissue was collected and fixed in 4% paraformaldehyde (pH 7.4) for 2 h in the cold room (4 °C). The rat paw tissue was then transferred into falcon tubes containing 30% sucrose solution in PBS and left overnight in the cold room. The next day, rat paw tissue was embedded with the Optimal Cutting Temperature compound (OCT, Sakura Finetek, USA) and stored in the −80 °C freezer before being used for making cryo-sections for histological analysis. Frozen sections of 5 microns were prepared using a cryostat-microtome (Leica Biosystems, Germany) and stained using standard protocols on the same day. In normal histological staining, such as with alcian blue and safranin O and hematoxylin and eosin (H&E), samples were briefly washed with distilled water before staining. In alcian blue and safranin O, samples were stained with 0.1% alcian blue (Sigma-Aldrich, USA) and 0.5% safranin O (Sigma-Aldrich, USA) before being mounted in mounting medium. In H&E, samples were stained with hematoxylin (Sigma-Aldrich, USA) and 0.1% eosin (Sigma-Aldrich, USA) before being mounted in mounting medium. In immunohistochemistry, samples were briefly rinsed with PBS to remove OCT and incubated with blocking medium (PBS, 0.1% triton X-100, 10% horse serum) for 1 h at room temperature. Samples were incubated with primary antibody medium (PBS, 4% horse serum, 1:200 histamine or 1:200 of tryptase or 1:150 ED1 or 1:200 ED2 antibodies) overnight at 4 °C. The next day, samples were washed with PBS and were incubated with the secondary antibody medium (PBS, 4% horse serum, detection antibody 1:1000) for 1 h at room temperature. The samples were briefly rinsed, dried and counterstained with DAPI (Invitrogen, Australia). Primary antibodies for histamine (Sigma-Aldrich, USA, H2403, monoclonal rabbit anti-rat IgG, 1: 200), tryptase (Abcam, Australia, ab2378, monoclonal mouse anti-rat IgG, 1:200), ED1 (Serotec, UK, MCA341R, monoclonal mouse anti-rat, 1:150), ED2 (Serotec, UK, MCA3424R, monoclonal mouse anti-rat, 1:200) were purchased from commercial sources. Secondary detection antibody was purchased from (Invitrogen, Australia). ED1 & ED2 positive cells were quantified using FIJI/ImageJ 1.42q software, U.S. National Institutes of Health, Bethesda, MD, USA[44]. All microscope images were obtained using an Olympus BX-51 upright microscope with Olympus DP-71 12Mp colour camera, utilizing DP Capture and DP Manager software packages (Olympus, Tokyo, Japan). Researchers who performed histological analysis and scoring were blinded to the sample identity.
Rat paw tissues were collected and immediately frozen with liquid nitrogen. The frozen rat paw tissue samples were weighed and crushed into smaller pieces with a mortar and pestle in liquid nitrogen. The crushed tissues were added to MPO buffer (50 mM potassium phosphate buffer, pH 6.0) to make up a concentration of 200 mg/mL and homogenized using Zirconium oxide beads (Next Advance, USA) and the Bullet Blender® homogeniser (Next Advance, USA). The homogenized tissues were then diluted to 100 mg/mL with the MPO buffer containing 1% hexadecyl trimethylamonium bromide (Sigma-Aldrich, USA) and underwent three cycles of freeze, thaw, and sonication. […]

[1] = 350 µg per paw i.pl., 0.5 h, vs vehicle
[2] = male Wistar rats, 350 µg per paw, i.pl.

Activated mast cells in paw tissue [1]: increased number of activated mast cells
Histamine secretion in paw tissue [1]: increased histamine secretion
Tryptase-positive cells in paw tissue [1]: decreased tryptase-positive cells
Paw edema induction [2]: induced an acute inflammatory edema
Time of peak paw swelling [2]: 0.5 h
Compound: Cc1[nH]c(C(c2ccccc2)c2ccccc2)nc1C(=O)N[C@@H](CCCNC(=N)N)C(=O)O [Compound 3]
Infiltration of ED1+ macrophages [1]: temporal increase in infiltration of inflammatory ED1^+ macrophages
Resident ED2+ macrophage cell numbers (350 µg per paw i.pl., vs vehicle): without significantly affecting resident ED2^+ macrophage cell numbers
Proinflammatory gene expression (Il1β, Il6, Tnf, Ccl3, Mcp1) in paw (350 µg/paw i.pl., 0.5, 6, 24 h, vs vehicle): induced the upregulation of many proinflammatory genes
Myeloperoxidase (MPO) activity in paw (350 µg/paw i.pl., 30 min, 6 h, 24 h, vs sham): increased myeloperoxidase (MPO) activity at 6 h, but not at 30 min or 24 h
